Consider twelve molecules from US5872281A, “Amino acid derivative having N,N-dialkylaminophenyl group” (Santen Pharmaceutical Co., Ltd., priority 1995, dated 1999).

In one experiment the test system is arthritis in a collagen-induced arthritis model.
Test: not given
Particulars: J. Med. Chem., 37, 3197-3199 (1994); cited from earlier work.
On to `O=C(O)C1(c2ccc3c(c2)OC[C@H](Cc2ccc(-c4ccccc4)cc2)[C@H]3O)CCCC1` [(+)-1-(3S, 4R)-[3-(4-phenylbenzyl)-4-hydroxychroman-7-yl]cyclopentanecarboxylic acid], for which the “inhibition of sideration of arthritis (in words)” value is “inhibit sideration of arthritis”.

The next experiment has as its target T1, LTA4 hydrolase (Cavia porcellus, UniProt P19602).
T1 construct: prepared by extracting roughly from guinea pig lung; from tissue; host or cells: guinea pig (Hartley) lung, 100,000×g supernatant, 40-70% ammonium sulfate fraction, dialyzed
T1 sequence (P19602 1-611): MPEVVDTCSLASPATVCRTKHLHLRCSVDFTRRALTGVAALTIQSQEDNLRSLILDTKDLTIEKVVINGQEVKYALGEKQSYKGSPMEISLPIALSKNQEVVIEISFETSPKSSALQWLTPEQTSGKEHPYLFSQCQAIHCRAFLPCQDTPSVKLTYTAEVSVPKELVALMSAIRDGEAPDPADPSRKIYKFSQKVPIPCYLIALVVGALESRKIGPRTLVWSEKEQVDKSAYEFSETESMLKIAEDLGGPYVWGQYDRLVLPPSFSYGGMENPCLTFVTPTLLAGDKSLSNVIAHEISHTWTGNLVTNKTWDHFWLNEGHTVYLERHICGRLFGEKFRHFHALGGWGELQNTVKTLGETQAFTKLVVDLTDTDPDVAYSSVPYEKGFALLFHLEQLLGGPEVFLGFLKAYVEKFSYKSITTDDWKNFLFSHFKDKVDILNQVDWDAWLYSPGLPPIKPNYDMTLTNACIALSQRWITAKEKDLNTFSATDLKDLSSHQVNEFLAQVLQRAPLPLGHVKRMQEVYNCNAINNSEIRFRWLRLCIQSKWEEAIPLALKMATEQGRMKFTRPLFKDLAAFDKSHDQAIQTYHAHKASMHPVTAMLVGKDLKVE
The experiment is described as follows: LTA4 hydrolase inhibition, LTB4 produced from LTA4 (guinea pig lung enzyme preparation), measured by HPLC. The experiment is classed as biochemical. Conditions: LTA4 63 μM; HEPES 50 mM, pH 7.8; enzyme preparation 0.4-0.6 mg protein; DTT 3 mM; 37° C., one minute; read-out: IC50 (concentration required to inhibit LTA4 hydrolase by 50%). As for the experimental part: Izumi et al. had reported a method of measuring LTA4 hydrolase activity by measuring an amount of LTB4 produced by an enzymatic reaction using LTA4 as a substrate (Biochem. Biophys. Res. Commun., 135, 139-145 (1986)). Effects of the present compounds on LTA4 hydrolase were examined according to the method described in the literature.
An enzyme preparation used in this pharmacological test was prepared by extracting roughly from guinea pig lung by the following method, according to the method of Izumi et al. (Biochem. Biophys. Res. Commun., 135, 139-145 (1986)) and the method of Evans et al. (Biochem. Biophys. Acta, 840, 43-50 (1985)).
Lungs were excised from Hartley guinea pigs (body weight: 330 g). The lungs were homogenized in phosphoric acid buffer (50 mM, pH 7.4, containing 1 mM ethylenediaminetetraacetic acid (EDTA) and 1 mM dithiothreitol (DTT)) having weight three times that of the lungs under ice-cooling. The homogenate was centrifuged at low speed (800×g) for 20 minutes, centrifuged at high speed (10,000×g) for 20 minutes and ultraccntrifugcd (100,000×g) for 60 minutes to give a supernatant. The supernatant was brought to 40% saturation by adding a saturated aqueous ammonium sulfate solution (pH 7.0-7.2, containing 1 mM DTT) dropwise under ice-cooling and centrifuged at high speed (10,000×g) for 20 minutes. The resulting supernatant was brought to 70% saturation by adding a saturated aqueous ammonium sulfate solution (pH 7.0-7.2, containing 1 mM DTT) dropwise and centrifuged at high speed (10,000×g) for 20 minutes. The obtained pellet was dissolved in 2 ml of Tris-acetic acid buffer (20 mM, pH 7.8, containing 1 mM DTT) and dialyzed in 2 liters of the solution to give the enzyme preparation.
LTA4 used, which is the substrate, was prepared by hydrolyzing LTA4 methyl ester and dissolved in ethanol.
In order to examine effects of the present compounds on the enzyme preparation, reactions were performed under the following condition using mixed solutions consisting of the composition shown in Table 1. […]
HEPES buffer 50 mM, pH 7.8
Enzyme preparation 0.4-0.6 mg protein
The above-mentioned solution (50 μl) was incubated at 37° C. for one minute. To the reaction mixture was added 100 μl of a mixed liquid of acetonitrile-ethanol-acetic acid (150:50:3, volume ratio) under ice-cooling. The mixture was allowed to stand at -20° C. for 30 minutes and centrifuged at high speed (10,000×g) for five minutes to give a supernatant. An amount of LTB4 produced in the supernatant was measured by high-speed liquid chromatography.
The degree of the inhibitory effect of each test compound on LTA4 hydrolase is expressed by the inhibition rate calculated by the following equation. [formula] Results
For the molecule `CCCC(CS)C(=O)N[C@@H](CSCc1ccc(N(C)C)cc1)C(=O)O` (mixture of isomers) [Compound No. 3-23, (2R)-3-[4-(N,N-Dimethylamino)benzylthio]-2-[(2RS)-3-mercapto-2-propylpropionylamino]propionic acid], the IC50 came to 290 nM.

With `CCN(CC)c1ccc(CSC[C@H](NC(=O)[C@H](C)CS)C(=O)O)cc1` [Compound No. 3-9, (2R)-3-[4-(N,N-Diethylamino)benzylthio]-2-[(2S)-3-mercapto-2-methylpropionyl]aminopropionic acid], the IC50 came to 900 nM. Still for that read-out and setting: the figure for `C[C@H](S)C(=O)N[C@@H](CSCc1ccc(N(C)C)cc1)C(=O)O` [Compound No. 3-19, (2R)-3-[4-(N,N-Dimethylamino)benzylthio]-2-[(2S)-2-mercaptopropionylamino]propionic acid] is 5600 nM; for `CN(C)c1ccc(CSC[C@H](NC(=O)C(CS)CCc2ccccc2)C(=O)O)cc1` (single isomer, unassigned) [Compound No. 3-27, (2R)-3-[4-(N,N-Dimethylamino)benzylthio]-2-[(2R or 2S)-2-phenetyl-3-mercaptopropionylamino]propionic acid] it is 3800 nM; for `C[C@@H](CS)C(=O)N[C@@H](CSCc1ccc(N(C)C)cc1)C(=O)O` [Compound No. 3-21, (2R)-3-[4-(N,N-Dimethylamino)benzylthio]-2-[(2R)-3-mercapto-2-methylpropionylamino]propionic acid] it is 1500 nM. Same read-out and setting: the value for `C[C@H](CS)C(=O)N[C@@H](CSCc1ccc(N(C)C)cc1)C(=O)O` [Compound No. 3-1, (2R)-3-[4-(N,N-Dimethylamino)benzylthio]-2-[(2S)-3-mercapto-2-methylpropionylamino]propionic acid] was 240 nM; that for `CN(C)c1ccc(CSC[C@H](NC(=O)C(CS)CCc2ccccc2)C(=O)O)cc1` (single isomer, unassigned) [Compound No. 3-26, (2R)-3-[4-(N,N-Dimethylamino)benzylthio]-2-[(2S or 2R)-2-phenetyl-3-mercaptopropionylamino]propionic acid] was 500 nM; that for `CCC(CS)C(=O)N[C@@H](CSCc1ccc(N(C)C)cc1)C(=O)O` (mixture of isomers) [Compound No. 3-22, (2R)-3-[4-(N,N-Dimethylamino)benzylthio]-2-[(2RS)-2-ethyl-3-mercaptopropionylamino]propionic acid] was 400 nM. On the same count and under the same terms, the figure for `CCOC(=O)[C@H](CSCc1ccc(N(C)C)cc1)NC(=O)[C@H](C)CS` [Compound No. 8-1, Ethyl (2R)-3-[4-(N,N-dimethylamino)benzylthio]-2-[(2S)-3-mercapto-2-methylpropionylamino]propionate] is 590 nM; for `CC(C)C(CS)C(=O)N[C@@H](CSCc1ccc(N(C)C)cc1)C(=O)O` (mixture of isomers) [Compound No. 3-24, (2R)-3-[4-(N,N-Dimethylamino)benzylthio]-2-[(2RS)-2-isopropyl-3-mercaptopropionylamino]propionic acid] it is 1100 nM.

A further experiment relates to LTA4 hydrolase.
Test: not given
Conditions: JP-A 2-134375; J. Med. Chem., 37, 3197-3199 (1994); cited from earlier work.
With `O=C(O)c1cccc(C2CO2)c1` (stereo not shown) [3-Oxiranyl benzoic acid], the “LTA4 hydrolase inhibitory activity (reported, in words)” value is listed as “LTA4 hydrolase inhibitory activity”. With `O=C(O)C1(c2ccc3c(c2)OC[C@H](Cc2ccc(-c4ccccc4)cc2)[C@H]3O)CCCC1` [(+)-1-(3S, 4R)-[3-(4-phenylbenzyl)-4-hydroxychroman-7-yl]cyclopentanecarboxylic acid], the “LTA4 hydrolase inhibitory activity (reported, in words)” value is reported as “LTA4 hydrolase inhibitory activity”.
